According to patent publication US20180282279A1, “Pantothenamide Analogues” (Radboud Universitair Medisch Centrum, priority 2014, published 2018):
Converted amounts (≈) assume the structure as drawn. “Also recorded” adds a separate entry of the source. Where two headings read alike, the source gives them in different places.

Legend:
[1] = test system: fetal bovine serum as a source of pantetheinase activity; experiment: Stability in vitro in fetal bovine serum (LC-MS); type: in vitro ADME
Protocol: FIG. 1: Inverted amides are stable in serum. The stability of pantothenamide CXP18.3-002 (A-C) and its corresponding inverted amide CXP18.6-006 (D-F) was measured using LC-MS analysis after overnight incubation in buffer (A and D), buffer with 10% fetal bovine serum (B and E) and buffer with 10% FBS supplemented with the vanin inhibitor RR6 (C-F). Fetal bovine serum contains a high level of vanin (pantetheinase) activity. Both compounds are stable after incubation in buffer alone (figure A and D). The small peaks in the amine channels, with molecular masses of 163 (A) en 191 (D), are either the result of disruption of compound during ionization (CXP18.3-002-sample) or background from the buffer (CXP18.6-006-sample). […] Explanation of masses and compounds: CXP18.3-002, exact mass 322.189, found at mass 305 (—H2O (18)+H^+(1)). Amine from CXP18.3-002, exact mass 121.089, found at 163 (+ACN(41) +H^+(1)). Pantothenic acid, exact mass 219.111, found at mass 220 (+H^+(1)). RR6, exact mass 293.163, found at 294 (+H^+(1)). CXP18.6-006, exact mass 322.189, found at mass 305 (—H2O (18) +H^+(1)). Amine from CXP18.6-006, exact mass 150.068, found at 151 (+H^+(1)).
Conventional pantothenamides are hydrolysed by pantetheinases in body fluids as shown before (Jansen et al 2013) thereby losing their antimicrobial activity (Jansen et al 2013, Spry et al 2013, PLoS One 8:e54974). Bioisosteric pantothenamides retained their in vitro antimicrobial activity in the presence of serum, as will be shown in the next examples. To examine the stability of analogues in vitro, CXP18.3-002 and its bioisostere CXP18.6-006 were incubated for 16 h at room temperature in PBS with 10% fetal bovine serum as a source of pantetheinase activity. Samples were taken and analyzed by LC-MS using a Shimadzu LC10ATvp HPLC coupled to a Shimadzu LCMS2010 A mass spectrometer. […] The hydrolysis of the pantothenamides by fetal bovine serum could be inhibited by the addition of RR6, a potent inhibitor of pantetheinase activity, as described before (Jansen en al 2013).

[2] = test system: Staphylococcus aureus; experiment: Bacterial growth assay and MIC determination, S. aureus; type: cell-based; settings: Staphylococcus aureus
Protocol: Strains of Escherichia coli, Staphylococcus aureus and Staphylococcus epidermidis, were grown overnight in 1% Bacto tryptone medium (BD, Sparks, Md.). Streptococcus pyogenes was grown overnight in Bacto Todd Hewitt Broth medium (BD, Sparks, Md.). Cultures were then diluted 1:1,000 in fresh assay medium supplemented with or without 20% fetal bovine serum (FBS; HyClone, Celbio, Logan, Utah) and added to 96-well sterile enzyme-linked immunosorbent assay (ELISA) plates (100 μl per well). The compounds to be tested were diluted in the medium without serum and added to the bacteria (100 μl per well). Plates were incubated at 37° C., and bacterial growth was monitored over time by reading the optical density at 490 nm using a microplate reader (model 450; Bio-Rad Laboratories Inc., Hercules, Calif.). Streptococcus pneumoniae strains were grown to mid-log phase (OD620 of 0.3) and stored in 15% glycerol at […] till further use. Minimal inhibitory concentration (MIC) of antibiotics was determined according to standard procedures. Bacteria were diluted 10-fold in Mueller-Hinton medium (BD, Sparks, Md.) and added to 96-well sterile ELISA plates (150 μl per well). The compounds to be tested were diluted in the medium without serum and added to the bacteria (150 μl per well). Plates were incubated overnight at 37° C. in 5% CO2. The MIC was defined as the lowest concentration of compound at which no growth was visible with the naked eye.

[3] = test system: Streptococcus pneumoniae; experiment: MIC determination, S. pneumoniae; type: cell-based; settings: Streptococcus pneumoniae; S. pneumoniae, serum −; read-out: MIC
Protocol: Streptococcus pneumoniae strains were grown to mid-log phase (OD620 of 0.3) and stored in 15% glycerol at […] till further use. Minimal inhibitory concentration (MIC) of antibiotics was determined according to standard procedures. Bacteria were diluted 10-fold in Mueller-Hinton medium (BD, Sparks, Md.) and added to 96-well sterile ELISA plates (150 μl per well). The compounds to be tested were diluted in the medium without serum and added to the bacteria (150 μl per well). Plates were incubated overnight at 37° C. in 5% CO2. The MIC was defined as the lowest concentration of compound at which no growth was visible with the naked eye.

stability after overnight incubation in buffer ([1]; buffer alone) | stability in buffer with 10% FBS supplemented with the vanin inhibitor RR6 ([1]; overnight) | SMILES | stability in buffer with 10% fetal bovine serum ([1]; PBS with 10% FBS, 16 h (overnight), room temperature) | MIC ([2]; S. aureus, serum −, read-out: MIC) [µg/mL] | MIC ([2]; Table 1, most sensitive species S. aureus (SA), read-out: MIC (μg/ml) for most sensitive bacterial species) [µg/mL] | MIC [3] [µg/mL]
stable | had no effect | CC(C)(CO)[C@@H](O)C(=O)NCCNC(=O)CCc1ccccc1 [CXP18.6-006] | remains intact; also recorded: No appreciable degradation | – | – | –
– | – | CC(C)(CO)[C@@H](O)C(=O)NCCNC(=O)CCc1ccccc1F [CXP18.6-017] | – | 2 (≈ 5.88 µM) | 2 (≈ 5.88 µM) | > 32
